Read-outs that look alike come from different tables or passages of the source. Values belong to the compound of their own block, whether it stands above or below them.
Legend:
OTUB2 (OTUB2A) = biological target: T1, OTUB2 (OTUB2A) (Homo sapiens, UniProt Q96DC9); parameters: Intact protein LC/MS covalent labelling, fragments in pools of five, 200 uM each, 4 °C; conditions: 24 h, 4 °C, pool of five; 200 µM; covalent
T1 construct: full length residues 1-234, E. coli BL21(DE3)-R3, His tag removed by TEV, construct 27312 Da
T1 sequence (Q96DC9 1-234): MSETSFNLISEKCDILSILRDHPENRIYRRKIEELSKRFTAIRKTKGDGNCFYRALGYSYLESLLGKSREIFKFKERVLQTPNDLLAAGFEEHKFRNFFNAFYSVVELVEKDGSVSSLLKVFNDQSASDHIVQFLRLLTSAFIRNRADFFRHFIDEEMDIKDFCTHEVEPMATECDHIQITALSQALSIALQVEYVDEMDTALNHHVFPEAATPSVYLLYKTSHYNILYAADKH
Description: (§1) Incubations were performed at 200 μM for each compound and 2 μM of protein (10 μM for BSA) for 24 h at 4 °C with moderate shaking. Incubation buffers varied among proteins (PBS pH 7.4 for QSOX1 and BSA; 10 mM HEPES pH 7.5, 0.3 M NaCl, 0.5 mM TCEP for PCAF, UPS8, and NUDT7; […]; 10 mM Na2HPO4 pH 7.5 100 mM NaCl 5 mM β-mercaptoethanol for NV3CP; 20 mM Na phosphate pH 7.5 for NNMT; […]. The reaction was stopped by quenching with formic acid, 0.4% final concentration. Each protein was incubated with the electrophilic library in pools of five compounds per well. The pool’s composition maximized the difference in mass between fragments in the same well. Incubations were performed with each fragment at 200 μM, for 24 h at 4 °C, to allow the screening of proteins that are not stable for long time periods at higher temperatures. Following incubation, we used intact protein [compound left out] chromatography/mass spectrometry (LC/MS) to identify the fragments and quantify their labeling (Figure 3A). […] There was good agreement between the percent of labeling of NUDT7 by 100 random individual compounds and that obtained in pools of five (R^2=0.78; Figure S6 and Data set 2 in the Supporting Information).

BSA = biological target: T2, BSA (Bos taurus, UniProt P02769); parameters: Intact protein LC/MS covalent labelling, fragments in pools of five, 200 uM each, 4 °C; conditions: 24 h, 4 °C, pool of five; 200 µM; covalent
T2 construct: gene ALB
T2 sequence (P02769 whole entry, the tested form may be a part): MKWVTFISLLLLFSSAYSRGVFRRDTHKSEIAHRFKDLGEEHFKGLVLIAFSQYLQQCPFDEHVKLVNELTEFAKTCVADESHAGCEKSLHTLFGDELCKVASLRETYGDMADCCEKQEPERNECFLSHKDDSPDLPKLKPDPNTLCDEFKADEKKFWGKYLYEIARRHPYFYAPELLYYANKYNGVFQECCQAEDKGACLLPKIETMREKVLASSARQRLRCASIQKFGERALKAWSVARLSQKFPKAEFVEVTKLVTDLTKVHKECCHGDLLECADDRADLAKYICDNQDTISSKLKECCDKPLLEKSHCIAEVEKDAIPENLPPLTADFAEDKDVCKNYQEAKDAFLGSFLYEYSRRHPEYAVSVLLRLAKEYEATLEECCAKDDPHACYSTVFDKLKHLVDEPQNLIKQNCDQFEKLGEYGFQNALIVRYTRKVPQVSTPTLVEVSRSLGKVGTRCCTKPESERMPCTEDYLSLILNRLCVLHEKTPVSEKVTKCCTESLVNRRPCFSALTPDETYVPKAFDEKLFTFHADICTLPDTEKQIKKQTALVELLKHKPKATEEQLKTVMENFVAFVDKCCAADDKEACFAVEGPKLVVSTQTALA
Description: as §1

NUDT7 = biological target: T3, NUDT7 (Homo sapiens, UniProt P0C024); parameters: Intact protein LC/MS covalent labelling, fragments in pools of five, 200 uM each, 4 °C; conditions: 24 h, 4 °C, pool of five; 200 µM; covalent
T3 construct: residues 14-235, E. coli, pNIC28-Bsa4, N-terminal His6 tag removed by TEV, construct 26672 Da
T3 sequence (P0C024 14-235): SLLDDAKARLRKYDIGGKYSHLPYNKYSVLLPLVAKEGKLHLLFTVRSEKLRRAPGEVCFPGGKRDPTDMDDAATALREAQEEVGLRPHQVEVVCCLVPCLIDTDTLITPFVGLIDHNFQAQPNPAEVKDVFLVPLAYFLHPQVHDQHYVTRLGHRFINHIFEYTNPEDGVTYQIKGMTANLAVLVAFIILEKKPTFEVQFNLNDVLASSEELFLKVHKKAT
Description: as §1

PCAF = biological target: T4, PCAF (Homo sapiens, UniProt Q92831); parameters: Intact protein LC/MS covalent labelling, fragments in pools of five, 200 uM each, 4 °C; conditions: 24 h, 4 °C, pool of five; 200 µM; covalent
T4 construct: gene KAT2B
T4 sequence (Q92831 whole entry, the tested form may be a part): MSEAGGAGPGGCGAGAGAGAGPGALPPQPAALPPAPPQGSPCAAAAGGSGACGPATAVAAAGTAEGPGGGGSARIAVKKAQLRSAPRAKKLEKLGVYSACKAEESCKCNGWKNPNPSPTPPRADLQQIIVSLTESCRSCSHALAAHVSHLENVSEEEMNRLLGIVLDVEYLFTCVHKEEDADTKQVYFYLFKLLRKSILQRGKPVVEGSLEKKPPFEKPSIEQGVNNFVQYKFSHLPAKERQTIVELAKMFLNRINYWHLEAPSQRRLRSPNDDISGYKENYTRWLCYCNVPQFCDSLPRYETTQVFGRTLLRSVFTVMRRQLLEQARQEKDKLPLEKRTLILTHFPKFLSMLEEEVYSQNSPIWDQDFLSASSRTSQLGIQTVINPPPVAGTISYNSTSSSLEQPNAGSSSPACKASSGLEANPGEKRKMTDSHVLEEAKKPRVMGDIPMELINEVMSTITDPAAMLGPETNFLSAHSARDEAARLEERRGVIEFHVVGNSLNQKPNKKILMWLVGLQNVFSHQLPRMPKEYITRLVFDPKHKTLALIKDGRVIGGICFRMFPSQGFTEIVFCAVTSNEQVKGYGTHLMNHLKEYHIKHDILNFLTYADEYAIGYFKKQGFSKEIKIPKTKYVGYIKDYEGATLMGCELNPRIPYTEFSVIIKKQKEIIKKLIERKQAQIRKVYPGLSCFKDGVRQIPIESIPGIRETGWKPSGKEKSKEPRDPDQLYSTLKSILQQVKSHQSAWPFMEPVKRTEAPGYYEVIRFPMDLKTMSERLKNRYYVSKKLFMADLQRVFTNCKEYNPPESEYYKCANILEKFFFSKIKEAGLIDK
Description: as §1

in vitro [1] = assay: in vitro; parameters: species or system HB2, CCD841; conditions: human, hek293 cells
in vitro [2] = assay: in vitro; parameters: species or system HB2, HEK293; conditions: human, ccd841 cells
in vitro [3] = assay: in vitro; parameters: species or system CCD841, HEK293; conditions: human, hb2 cells, read-out: HB-2 Cells Viability (%)

Structure (SMILES): O=C(CCl)N1c2ccccc2NC(=O)C12CCCC2 [PCM-0102159]
OTUB2 (OTUB2 (OTUB2A)): 0 | BSA (BSA): 0 | NUDT7 (NUDT7): 0.18 | PCAF (PCAF): 0

Structure (SMILES): O=C(CCl)N1CCSC1c1ccccc1F (stereo not drawn) [PCM-0102293]
OTUB2 (OTUB2 (OTUB2A)): 0.12 | BSA (BSA): 0 | NUDT7 (NUDT7): 0.83 | PCAF (PCAF): 0

Structure (SMILES): COc1cc2c(cc1OC)CN(C(=O)CCl)CC2 [PCM-0102317]
OTUB2 (OTUB2 (OTUB2A)): 0.14 | BSA (BSA): 0 | NUDT7 (NUDT7): 0.1 | PCAF (PCAF): 0

Structure (SMILES): CN(C(=O)CCl)c1ccccc1 [PCM-0102368]
OTUB2 (OTUB2 (OTUB2A)): 0 | BSA (BSA): 0 | NUDT7 (NUDT7): 0 | PCAF (PCAF): 0

Structure (SMILES): C=CC(=O)N1CCC(Cc2ccccn2)CC1 [PCM-0102473]
OTUB2 (OTUB2 (OTUB2A)): 0 | NUDT7 (NUDT7): 0 | PCAF (PCAF): 0 | viability at 48 h, 10 µM (in vitro [1]): 98.6% | viability at 48 h, 10 µM (in vitro [2]): 112% | viability at 48 h, 10 µM (in vitro [3]): 100%

Structure (SMILES): Cc1cc(SC#N)ccc1NC(=O)CCl [PCM-0102508]
OTUB2 (OTUB2 (OTUB2A)): 0 | BSA (BSA): 0 | PCAF (PCAF): 0 | viability at 48 h, 10 µM (in vitro [1]): 27.8% | viability at 48 h, 10 µM (in vitro [2]): 19.6% | viability at 48 h, 10 µM (in vitro [3]): 14.1%

Structure (SMILES): C=CC(=O)NC(C)(C)c1cc(C(F)(F)F)on1 [PCM-0102528]
OTUB2 (OTUB2 (OTUB2A)): 0 | BSA (BSA): 0 | PCAF (PCAF): 0 | viability at 48 h, 10 µM (in vitro [1]): 104% | viability at 48 h, 10 µM (in vitro [2]): 109% | viability at 48 h, 10 µM (in vitro [3]): 99.9%

Structure (SMILES): O=C(CCl)NCc1ccccc1 [PCM-0102538]
OTUB2 (OTUB2 (OTUB2A)): 0.28 | BSA (BSA): 0 | NUDT7 (NUDT7): 0 | PCAF (PCAF): 0

Structure (SMILES): C=CC(=O)N1CCCC(Cn2ccnn2)C1 (stereo not drawn) [PCM-0102647]
OTUB2 (OTUB2 (OTUB2A)): 0.09 | BSA (BSA): 0 | PCAF (PCAF): 0 | viability at 48 h, 10 µM (in vitro [1]): 102% | viability at 48 h, 10 µM (in vitro [2]): 102% | viability at 48 h, 10 µM (in vitro [3]): 101%

Structure (SMILES): O=C(CCl)N(C1CC1)C1CCCc2ccccc21 (stereo not drawn) [PCM-0102774]
OTUB2 (OTUB2 (OTUB2A)): 0 | BSA (BSA): 0 | PCAF (PCAF): 0 | viability at 48 h, 10 µM (in vitro [1]): 4% | viability at 48 h, 10 µM (in vitro [2]): 5.8% | viability at 48 h, 10 µM (in vitro [3]): 5.8%

Structure (SMILES): C=CC(=O)Nc1cc(C)on1 [PCM-0102805]
OTUB2 (OTUB2 (OTUB2A)): 0 | BSA (BSA): 0 | NUDT7 (NUDT7): 0 | PCAF (PCAF): 0

Structure (SMILES): Cc1ccccc1CN1CCCN(C(=O)CCl)CC1.Cl [PCM-0102911]
OTUB2 (OTUB2 (OTUB2A)): 0 | BSA (BSA): 0 | NUDT7 (NUDT7): 0 | PCAF (PCAF): 0

Structure (SMILES): C=CC(=O)NCc1ccc2cnn(C)c2c1 [PCM-0102947]
OTUB2 (OTUB2 (OTUB2A)): 0 | BSA (BSA): 0 | NUDT7 (NUDT7): 0 | PCAF (PCAF): 0

Structure (SMILES): CN(Cc1cccc(Cl)c1)C(=O)CCl [PCM-0102976]
OTUB2 (OTUB2 (OTUB2A)): 0 | BSA (BSA): 0 | PCAF (PCAF): 0 | viability at 48 h, 10 µM (in vitro [1]): 31.2% | viability at 48 h, 10 µM (in vitro [2]): 67.9% | viability at 48 h, 10 µM (in vitro [3]): 18.9%

Structure (SMILES): C=CC(=O)Nc1ccc(OC)cc1 [PCM-0103034]
OTUB2 (OTUB2 (OTUB2A)): 0 | BSA (BSA): 0 | NUDT7 (NUDT7): 0 | PCAF (PCAF): 0

Structure (SMILES): Cc1ccc(CN2CCCN(C(=O)CCl)CC2)cc1.Cl [PCM-0103056]
OTUB2 (OTUB2 (OTUB2A)): 0 | BSA (BSA): 0 | NUDT7 (NUDT7): 0 | PCAF (PCAF): 0

Further lines, with some results ahead:

OTUB2 (OTUB2 (OTUB2A)): 0 | BSA (BSA): 0 | NUDT7 (NUDT7): 0 | PCAF (PCAF): 0
Structure (SMILES): Cl.O=C(CCl)N1CCN(c2ncccn2)CC1 [PCM-0102093]
viability at 48 h, 10 µM (in vitro [1]): 63.9% | viability at 48 h, 10 µM (in vitro [2]): 83.3% | viability at 48 h, 10 µM (in vitro [3]): 57.5%

OTUB2 (OTUB2 (OTUB2A)): 0 | BSA (BSA): 0.2 | NUDT7 (NUDT7): 0 | PCAF (PCAF): 0
Structure (SMILES): C=CC(=O)Nc1ccc(F)cc1 [PCM-0102111]

OTUB2 (OTUB2 (OTUB2A)): 0.12 | NUDT7 (NUDT7): 1 | PCAF (PCAF): 0
Structure (SMILES): O=C(CCl)Nc1nc2ccc(Br)cc2s1 [PCM-0102126]
viability at 48 h, 10 µM (in vitro [1]): 92.5% | viability at 48 h, 10 µM (in vitro [2]): 92.7% | viability at 48 h, 10 µM (in vitro [3]): 83.6%

OTUB2 (OTUB2 (OTUB2A)): 0.21 | BSA (BSA): 0 | NUDT7 (NUDT7): 0 | PCAF (PCAF): 0
Structure (SMILES): NS(=O)(=O)c1ccc2c(c1)CCN2C(=O)CCl [PCM-0102229]

OTUB2 (OTUB2 (OTUB2A)): 0 | NUDT7 (NUDT7): 0 | PCAF (PCAF): 0
Structure (SMILES): Cc1c(C#N)sc(NC(=O)CCl)c1C#N [PCM-0102371]
viability at 48 h, 10 µM (in vitro [1]): 87.5% | viability at 48 h, 10 µM (in vitro [2]): 102% | viability at 48 h, 10 µM (in vitro [3]): 94.3%

OTUB2 (OTUB2 (OTUB2A)): 0 | BSA (BSA): 0 | PCAF (PCAF): 0
Structure (SMILES): C=CC(=O)N1CCCC(c2cnn(C)c2)C1 (stereo not drawn) [PCM-0102641]
viability at 48 h, 10 µM (in vitro [1]): 81.4% | viability at 48 h, 10 µM (in vitro [2]): 115% | viability at 48 h, 10 µM (in vitro [3]): 107%

OTUB2 (OTUB2 (OTUB2A)): 0 | BSA (BSA): 0 | PCAF (PCAF): 0
Structure (SMILES): C=CC(=O)N1C2CCC1CC(O)(Cc1ccc(F)cc1F)C2 (stereo not drawn) [PCM-0102642]
viability at 48 h, 10 µM (in vitro [1]): 92.5% | viability at 48 h, 10 µM (in vitro [2]): 103% | viability at 48 h, 10 µM (in vitro [3]): 102%

OTUB2 (OTUB2 (OTUB2A)): 0.13 | BSA (BSA): 0 | PCAF (PCAF): 0
Structure (SMILES): O=C(CCl)NC1CCC2(CC1)OCCO2 [PCM-0102820]
viability at 48 h, 10 µM (in vitro [1]): 111% | viability at 48 h, 10 µM (in vitro [2]): 96.8% | viability at 48 h, 10 µM (in vitro [3]): 107%

OTUB2 (OTUB2 (OTUB2A)): 0 | BSA (BSA): 0 | NUDT7 (NUDT7): 0 | PCAF (PCAF): 0
Structure (SMILES): C=CC(=O)N1CCc2ncsc2C1 [PCM-0102847]

OTUB2 (OTUB2 (OTUB2A)): 0 | BSA (BSA): 0 | PCAF (PCAF): 0
Structure (SMILES): C=CC(=O)Nc1nc(-c2ccc(O)cc2)cs1 [PCM-0102884]
viability at 48 h, 10 µM (in vitro [1]): 65.4% | viability at 48 h, 10 µM (in vitro [2]): 80% | viability at 48 h, 10 µM (in vitro [3]): 75.2%

OTUB2 (OTUB2 (OTUB2A)): 0 | NUDT7 (NUDT7): 1 | PCAF (PCAF): 0
Structure (SMILES): O=C(Nc1ccccc1)NN(C(=O)CCl)c1ccccc1 [PCM-0102957]
viability at 48 h, 10 µM (in vitro [1]): 0.8% | viability at 48 h, 10 µM (in vitro [2]): 1.1% | viability at 48 h, 10 µM (in vitro [3]): 3.7%

OTUB2 (OTUB2 (OTUB2A)): 0.12 | BSA (BSA): 0 | NUDT7 (NUDT7): 0 | PCAF (PCAF): 0
Structure (SMILES): C=CC(=O)Nc1ccccc1C [PCM-0103000]

OTUB2 (OTUB2 (OTUB2A)): 0.6 | BSA (BSA): 0 | PCAF (PCAF): 0
Structure (SMILES): O=C(CCl)NCC#Cc1ccccc1 [PCM-0103007]
viability at 48 h, 10 µM (in vitro [1]): 59.4% | viability at 48 h, 10 µM (in vitro [2]): 84.1% | viability at 48 h, 10 µM (in vitro [3]): 78.1%

Reference: PMC6556873, “Rapid Covalent-Probe Discovery by Electrophile-Fragment Screening” (Journal of the American Chemical Society, 2019)
